From patent US20260008818A1, “CYCLIC PEPTIDE OR SALT THEREOF, AND USES THEREOF” (FUJIFILM Corporation, priority 2023, published 2026)
Bridge positions count the residues as written; N and C are the ends. Ends that are not written are not given here. COCH2 = acetyl group that carries the bridge

System: Recombinant Human FGFR1 alpha (IIIc) Fc Chimera Protein
Experiment: Binding affinity of enzymatically synthesized cyclic peptide to FGFR by ELISA
Settings: luminescence signal at reaction concentration 10 nmol/L, SEQ ID NO: 39 standardized to 1, enzyme synthesis product
How it was run: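 Plate-immobilized FGFR1α(IIIc)-Fc (5 ng/well) incubated with Myc-tagged cyclic peptide 3 h at room temperature; bound peptide detected with anti-Myc antibody (2 h) and chemiluminescence. Signal is FGFR minus no-FGFR wells, normalized to SEQ ID NO: 39 at 10 nmol/L and graded A–D.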

Substance | Evaluation result of binding affinity to FGFR
227 (YK(COCH2)TWERLIFLGHIAPFWVCR; thioether 2-19 (inferred)) [compound 227] | C (0.1 or more and less than 0.5)
228 (RK(COCH2)TWERLIFLGHIAPFWVCR; thioether 2-19 (inferred)) [compound 228] | C (0.1 or more and less than 0.5)
229 (HK(COCH2)VWERLIFLGHIAPFWVCR; thioether 2-19 (inferred)) [compound 229] | B (0.5 or more and less than 0.7)
230 (HK(COCH2)QWERLIFLGHIAPFWVCR; thioether 2-19 (inferred)) [compound 230] | B (0.5 or more and less than 0.7)
231 (HK(COCH2)TFERLIFLGHIAPFWVCR; thioether 2-19 (inferred)) [compound 231] | B (0.5 or more and less than 0.7)
232 (HK(COCH2)TYERLIFLGHIAPFWVCR; thioether 2-19 (inferred)) [compound 232] | B (0.5 or more and less than 0.7)
233 (HK(COCH2)TWERLVFLGHIAPFWVCR; thioether 2-19 (inferred)) [compound 233] | B (0.5 or more and less than 0.7)
234 (HK(COCH2)TWERLRFLGHIAPFWVCR; thioether 2-19 (inferred)) [compound 234] | A (0.7 or more)
235 (HK(COCH2)TWERLIFRGHIAPFWVCR; thioether 2-19 (inferred)) [compound 235] | A (0.7 or more)
236 (HK(COCH2)TWERLIFQGHIAPFWVCR; thioether 2-19 (inferred)) [compound 236] | A (0.7 or more)
237 (HK(COCH2)TWERLIFLGHLAPFWVCR; thioether 2-19 (inferred)) [compound 237] | B (0.5 or more and less than 0.7)
238 (HK(COCH2)TWERLIFLGHVAPFWVCR; thioether 2-19 (inferred)) [compound 238] | B (0.5 or more and less than 0.7)
239 (HK(COCH2)TWERLIFLGHIAPFLVCR; thioether 2-19 (inferred)) [compound 239] | B (0.5 or more and less than 0.7)
240 (HK(COCH2)TWERLIFLGHIAPFHVCR; thioether 2-19 (inferred)) [compound 240] | A (0.7 or more)
241 (HK(COCH2)TWERLIFLGHIAPFWVCV; thioether 2-19 (inferred)) [compound 241] | B (0.5 or more and less than 0.7)
242 (HK(COCH2)TWERLIFLGHIAPFWVCS; thioether 2-19 (inferred)) [compound 242] | A (0.7 or more)
243 (LCRYVKLRVGLHIAPFLIK(COCH2)S; thioether 2-19 (inferred)) [compound 243] | C (0.1 or more and less than 0.5)
244 (NCWGWAYPIPFRK(COCH2)V; thioether 2-13 (inferred)) [compound 244] | C (0.1 or more and less than 0.5)
245 (WCQYVYLSHVAPFLVRK(COCH2)E; thioether 2-17 (inferred)) [compound 245] | C (0.1 or more and less than 0.5)
246 (PCTYRQVVVHGWYAPFISK(COCH2)V; thioether 2-19 (inferred)) [compound 246] | C (0.1 or more and less than 0.5)
247 (ACKYVPHIFQQHQAPYLVK(COCH2)S; thioether 2-19 (inferred)) [compound 247] | B (0.5 or more and less than 0.7)
248 (QCWKRVRVYGFFAPFVHK(COCH2)I; thioether 2-18 (inferred)) [compound 248] | B (0.5 or more and less than 0.7)
249 (RCWKVLKVLGHRAPFLIAK(COCH2)Y; thioether 2-19 (inferred)) [compound 249] | C (0.1 or more and less than 0.5)
